Series [1] concerns MCF‐7 cells. Nature of the series: Cellular uptake and co-localisation by confocal microscopy. Type of series: cell-based. To be noted: ER Tracker 1 µM, 45 min. As for the experimental part:
The intracellular uptake of the BODIPY derivatives was assessed in two mammalian cell lines, CHO (non‐cancer) and MCF‐7 (cancer). […] B2P and B2PI were studied following 4 h and 17 h incubation in MCF‐7 cells with 10 μM of each BODIPY derivative. A 17 h incubation was selected to allow for adequate cell uptake of the complex, ensuring sufficient brightness for confocal imaging while minimising cell toxicity.
Across all four compounds uptake of the BODIPYs led to extremely bright and highly punctate staining from within the cells. As all of the BODIPY‐perylene probes emit minimally from aqueous media including cell culture media (Figure S20) the bright emission is attributed to localisation of the complex to non‐aqueous domains, i. e. organelle membranes or to lipid droplets (LDs). To identify which, co‐localisation studies with targeted probes were completed. CHO and MCF‐7 cells were treated with B2P, B2PI, MB2P or MB2PI and co‐stained with specific organelle markers including LD probes; PyLa−C17Cer and BODIPY 493/503, an endoplasmic reticulum stain; ER Tracker Blue‐White and a lysosomal stain; LysoTracker Deep Red. Pyla‐C17Cer was previously published and localises in both the ER and LDs.[41] Cellular uptake of B2PI was recently reported in MCF‐7 cells, though localisation was not explored.[25]
MCF‐7 and CHO cells were treated with B2P, MB2P, B2PI or MB2PI for 17 h and co‐stained with a number of dyes for co‐staining including LysoTracker Deep Red, ER Tracker Blue/White, PyLa−C17Cer, BODIPY 493/503 and H2DCFDA. Cells were imaged in phenol red free media using a Leica DMi8 confocal microscope with a 63x or 100x oil immersion lens and a heated state at 37 °C.
Uptake in Live Cell Monolayers
CHO cells were incubated in 75cm2 cell culture flasks (Corning) with DMEM/F-12 Ham medium (Sigma-Aldrich) with L-glutamine and sodium bicarbonate supplemented with 10% fetal bovine serum (FBS) (Gibco) and 1% penicillin-streptomycin (Sigma-Aldrich). MCF-7 cells were incubated in 25cm2 cell culture flasks with RPMI-1640 medium (Sigma-Aldrich) with L-glutamine and sodium bicarbonate supplemented with 10% fetal bovine serum (FBS, Gibco) and 1% penicillin-streptomycin. Cells were incubated at 37 °C with 5% CO2 and detached from the flask at 90% confluency using a 1X Trypsin-EDTA solution (Sigma-Aldrich). Cells were counted using the EVE automated cell counter (NanoEnTek) and seeded at 1 x 10^5 cells per mL in a 4 or 8 chamber µ-slide (ibidi) for cell imaging and left for 24 h at 37 °C. Cells were rinsed with 1X PBS (Gibco) and stained with B2P or B2PI at 10 µM and MB2P or MB2PI at 30 µM for 17 h. Cells were washed twice with PBS and covered with phenol red free RPMI medium (Gibco) for imaging. […]

Series [2] concerns MCF‐7 cells. Nature of the series: Dark toxicity, 24 h, alamar blue assay. Type of series: cell-based. To be noted: Homo sapiens, MCF7, light or radiation study, without irradiation, 24 h in the dark at 37 °C. The method, then:
Typical of many BODIPY derivatives, the BODIPY's presented in this work are insoluble in aqueous media, including PBS, and thus the main stock solutions (2–3 mM) were prepared in 100 % DMSO and diluted in media immediately before treating the cells. The maximum concentration for dark toxicity was set at 50 μM to keep the concentration of DMSO ≤1 % (v/v) to maintain cell health. As a result, it was not possible to determine an exact dark IC50 value as concentrations above 50 μM demanded DMSO concentrations that would affect the viability of the cells. Dietzek‐Ivanšić et al previously reported on the effect of DMSO on MCF‐7 cell viability, where cell viability remained high (95 %) in cells treated with 1 % DMSO in cell culture media for 24 h, whereas only 40 % of cells remained viable after treatment with 3.8 % DMSO. Working stocks in cell culture media remained stable within the incubation times used for cellular studies i. e. up to 24 h.[25]
Dark‐ and photo‐toxicity studies were performed by seeding CHO and MCF‐7 cells in clear 96‐well plates (Nunc) and treating with varying concentrations of B2P, MB2P, B2PI and MB2PI. Phototoxicity experiments were carried out using a 470 nm LED. For hypoxic phototoxicity studies, hypoxia was mimicked by adding CoCl2 to the cells prior to irradiation. Cell viability was determined using the alamar blue assay and absorbance measured with a BMG LABTECH CLARIOstar plate reader. […]
For 24 h dark toxicity studies, 50, 10, 5 and 1 µM stock concentrations of B2P, B2PI, MB2P and MB2PI were prepared in media to a final DMSO concentration of ≤1%. 100 µL of each concentration was added to the wells in triplicate and the plates incubated for 24 h in the dark at 37°C. Cell viability of all plate-based studies was assessed using the alamar blue assay. A 10% Resazurin-media solution (alamarBlue, Invitrogen) was added to the wells and incubated for 5 h in the absence of light. Absorbance was measured using a BMG LABTECH CLARIOstar plate reader at 570 nm and 600 nm (corrected for background subtraction). Cell viability is presented as a percentage (%) compared to untreated control wells. Plates were performed in triplicate. […]

Molecules are shown by their SMILES. pIC50: −log10 of the molar value. Values joined by “and” are separate entries in the source; they are usually repeats but may differ in a detail not shown here. Identical values can stand only once. Where only a bound is given, the exact number is not on record here.

The source of these data is paper PMC11653243, “Enhancing Phototoxicity in BODIPY‐Perylene Charge Transfer Dyads by Combined Iodination and Mesylation” (Chemistry (Weinheim an Der Bergstrasse, Germany), 2024).

For orientation: pIC50 means the negative decadic logarithm of the IC50, by convention in mol/L. A higher pIC50 goes with a small IC50.

With `CC1=C(I)C(C)=[N+]2C1=C(c1ccccc1)c1c(C)c(-c3ccc4c5cccc6cccc(c7cccc3c74)c65)c(C)n1[B-]2(F)F` [B2PI], in the series on MCF‐7 cells [1], the “Pearson Coefficient (r) with ER Tracker Blue/White” value came to 0.19 ± 0.05. This compound also showed a negative-log IC50 (pIC50) in the series with MCF‐7 cells [2] of less than 4.30.

Take `CC1=CC(C)=[N+]2C1=C(c1ccccc1)c1c(C)c(-c3ccc4c5cccc6cccc(c7cccc3c74)c65)c(C)n1[B-]2(F)F` [B2P]: the “Pearson Coefficient (r) with ER Tracker Blue/White” value with MCF‐7 cells [1] is reported as 0.14 ± 0.07. Moreover, the pIC50 in the series with MCF‐7 cells [2] is less than 4.30.

`CC1=C(c2ccc3c4cccc5cccc(c6cccc2c63)c54)C(C)=[N+]2C1=C(c1c(C)cc(C)cc1C)c1c(C)cc(C)n1[B-]2(F)F` [MB2P]: the “Pearson Coefficient (r) with ER Tracker Blue/White” value with MCF‐7 cells [1] was 0.54 ± 0.04 and ~0.5. Further, the pIC50 with MCF‐7 cells [2] is less than 4.30.

In the case of `CC1=C(c2ccc3c4cccc5cccc(c6cccc2c63)c54)C(C)=[N+]2C1=C(c1c(C)cc(C)cc1C)c1c(C)c(I)c(C)n1[B-]2(F)F` [MB2PI], the “Pearson Coefficient (r) with ER Tracker Blue/White” value in the series with MCF‐7 cells [1] was 0.53 ± 0.04 and ~0.5. In the series on MCF‐7 cells [2], the pIC50 is less than 4.30.
